Test results taken from ChEMBL document CHEMBL1141639, “Synthesis and heme-binding correlation with antimalarial activity of 3,6-bis-(omega-N,N-diethylaminoamyloxy)-4,5-difluoroxanthone” (Bioorg Med Chem, 2008).

What was measured:
Plasmodium falciparum [1] = assay: Antimalarial activity against Plasmodium falciparum D6 in MSF assay; assay type: functional, organism-based
[2] = Binding affinity to heme in aqueous solution
Plasmodium falciparum [3] = assay: Antimalarial activity against Plasmodium falciparum W2 in MSF assay; assay type: functional, organism-based

Row | Structure (SMILES) | IC50 (Plasmodium falciparum [1]) | Ka [2] | IC50 (Plasmodium falciparum [3])
1 | CCN(CC)CCCCCOc1ccc2c(=O)c3ccc(OCCCCCN(CC)CC)cc3oc2c1 | 180 nM | 8.2 10^5/M | 120 nM
2 | CCN(CC)CCCCCOc1ccc2c(=O)c3ccc(OCCCCCN(CC)CC)c(F)c3oc2c1F | 93 nM | 0.6 10^5/M | 150 nM
3 | C=CC1CN2CC[C@H]1C[C@H]2[C@H](O)c1ccnc2ccc(OC)cc12 (single isomer, unassigned) [QUININE] | 11 nM | 0.2 10^5/M | 60 nM
4 | O[C@@H](c1cc(C(F)(F)F)nc2c(C(F)(F)F)cccc12)[C@H]1CCCCN1 [MEFLOQUINE] | 5.9 nM | 0.1 10^5/M | 0.7 nM
